Experimental findings from patent US11419852B2, “Beta-lactam compounds or salts thereof for use in long-acting prevention or treatment of a glucose metabolism disorder” (GLYCOLYSIS BIOMED CO., LTD., priority 2019, dated 2022) are described below.

Marks after values point to notes of the source that are not given here.

What all share (type): in vivo
Series [1] in a line: Body weight of mice recorded weekly. To be noted: Ex 3: db/db mice, daily dosing 3 weeks at doses of Table 10. As to the method:
(§1) Four to five weeks old db/db mice (BKS.Cg-Dock7^m+/+Lepr^db/JNarl) and m/m mice (BKS.Cg-Dock7^m+/Dock7^m+) were obtained from National Laboratory Animal Center ([…], Taiwan). […] PMI Nutrition International, Brentwood, Mo.) and water ad libitum. […] The mouse body weight (bw) and the amounts of water and food intake were recorded weekly for the entire study period.

Series [2] can be described thus: Food and water intake of mice. To be noted: for Food intake in db/db mice / Water intake in db/db mice: Ex 3, P<0.05; for Diet intake / Water intake: Ex 3: db/db mice, daily dosing 3 weeks at doses of Table 10. As to the method:
as §1

The subject of series [3] is db/db mice. The experiment in a line: Oral glucose tolerance test (OGTT). The following applies: for OGTT AUC: Ex 3: db/db mice, daily dosing 3 weeks at doses of Table 10. Details: OGTT AUC: unit not given here. As to the method:
Four to five weeks old db/db mice (BKS.Cg-Dock7^m+/+Lepr^db/JNarl) and m/m mice (BKS.Cg-Dock7^m+/Dock7^m+) were obtained from National Laboratory Animal Center ([…], Taiwan). […] PMI Nutrition International, Brentwood, Mo.) and water ad libitum. […] Blood was sampled from the tail vein, and FPG levels were measured and recorded as the basic blood glucose levels. […] The total area under the curve (AUC) in OGTT was plotted and calculated by the Area Under Coordinates Program (StatsToDo Server, Department of Obstetrics and Gynecology, Chinese University of Hong Kong).

Series [4] relates to db/db mice. Description: Plasma biochemical parameters (AST, ALT, BUN, Cr, HbA1c).
Method: Inflammatory markers such as serum aspartate aminotransferase (AST), alanine aminotransferase (ALT), blood urea nitrogen (BUN), creatinine (Cr), and hemoglobin Alc (HbAlc) were measured using a BMC-Hitachi 717 chemistry auto analyzer.
Where [5] appears, read: Ex 3, after the treatments had been stopped for 6 weeks.
Where [6] appears, read: Ex 3: db/db mice, daily dosing 3 weeks at doses of Table 10, week 9.

With `CO/N=C(\C(=O)N[C@@H]1C(=O)N2C(C(=O)O)=C(CSc3nc(=O)c(=O)[nH]n3C)CS[C@H]12)c1csc(N)n1` [CEFT, ceftriaxone], the Body weight in series [1] (Baseline) is listed as 30.0 ± 1^b. Moreover, in series [1] (Final), the Body weight is listed as 37.8 ± 2^c. For the same compound, the Body weight in series [1] (Week 3) is 32.9 ± 1^cd. Besides, the Body weight in series [1] (Week 6 (stopped for 3 weeks)) is listed as 34.1 ± 2^b. Besides, the Body weight in series [1] (Week 9 (stopped for 6 weeks)) is listed as 38.8 ± 2^c. Also, in series [2], the “Food intake in db/db mice” value is reported as “significantly reduced”, the “Water intake in db/db mice” value was “significantly reduced”, the Diet intake is recorded as 5.0 ± 1^b g/mice/day and the Water intake is 7.1 ± 1^b mL/mice/day. Further, in the series on db/db mice [3] (Week 6 (stopped for 3 weeks)), the “OGTT AUC” value is given as 1276 ± 69^b. The “OGTT AUC” value in the series on db/db mice [3] (Week 9 (stopped for 6 weeks)) is given as 1483 ± 37^ce. In addition, in the series with db/db mice [4] (setting [5]), the “Level of ALT” value was “reduce”, the “Level of AST” value is listed as “reduce”, the “Level of BUN” value was “reduce” and the “Level of Cr” value is given as “reduce”. For the same compound, the “Level of HbA1c” value in the series on db/db mice [4] (setting [5]) was “reduce”. Also, in the series on db/db mice [4] (setting [6]), the ALT is 80 ± 7^bc U/L, the AST is 104 ± 10^ac U/L, the BUN is 38 ± 2^bc mg/dL and the Creatinine is 0.428 ± 0.01^b mg/dL. The HbA1c in the series on db/db mice [4] (setting [6]) is listed as 4.9 ± 0.2^c %.
With `C[C@@H](O)[C@H]1C(=O)N2C(C(=O)O)=C(S[C@@H]3CN[C@H](C(=O)N(C)C)C3)[C@H](C)[C@H]12` [MER, meropenem hydrate], the Body weight in series [1] (Baseline) is 28.3 ± 1^b. For the same compound, the Body weight in series [1] (Final) was 36.0 ± 2^bc. For the same compound, the Body weight in series [1] (Week 3) is 33.6 ± 1^cd. The compound also displayed a Body weight in series [1] (Week 6 (stopped for 3 weeks)) of 37.1 ± 1b^c. Further, the Body weight in series [1] (Week 9 (stopped for 6 weeks)) is 38.2 ± 2^c. Moreover, in series [2], the Diet intake is reported as 5.9 ± 1^c g/mice/day and the Water intake is 14.7 ± 1^e mL/mice/day. The “OGTT AUC” value in the series on db/db mice [3] (Week 6 (stopped for 3 weeks)) is 1599 ± 39^c. Also, in the series on db/db mice [3] (Week 9 (stopped for 6 weeks)), the “OGTT AUC” value is listed as 1648 ± 61^def. For the same compound, the “Level of AST” value in the series on db/db mice [4] (setting [5]) is on record as “reduce”. Also, in the series on db/db mice [4] (setting [6]), the ALT is given as 89 ± 5^bcd U/L, the AST is listed as 93 ± 8^ab U/L, the BUN is 43 ± 2^bd mg/dL and the Creatinine is 0.488 ± 0.03^cde mg/dL. For the same compound, in the series with db/db mice [4] (setting [6]), the HbA1c is 6.9 ± 0.3^e %.
For `CC1(C)S[C@@H]2[C@H](NC(=O)Cc3ccccc3)C(=O)N2[C@H]1C(=O)O` [PEN, penicillin G], the Body weight in series [1] (Baseline) is recorded as 31.1 ± 1^b. The Body weight in series [1] (Final) is reported as 32.2 ± 1^b. The Body weight in series [1] (Week 3) is recorded as 25.7 ± 1^b. For the same compound, in series [1] (Week 6 (stopped for 3 weeks)), the Body weight is 24.6 ± 1^a. Besides, in series [1] (Week 9 (stopped for 6 weeks)), the Body weight is reported as 32.4 ± 1^b. Further, in series [2], the “Food intake in db/db mice” value was “significantly reduced”, the “Water intake in db/db mice” value is reported as “significantly reduced”, the Diet intake is reported as 4.0 ± 0.9^a g/mice/day and the Water intake is given as 8.3 ± 4^c mL/mice/day. Also, in the series on db/db mice [3] (Ex 3, medications stopped for at least 3 weeks (FIG. 6A, 6B)), the “Regulation of blood glucose homeostasis (OGTT glucose vs G8)” value is “still effective”. Moreover, the “OGTT AUC” value with db/db mice [3] (Week 6 (stopped for 3 weeks)) is on record as 1088 ± 91^b. Moreover, the “OGTT AUC” value in the series on db/db mice [3] (Week 9 (stopped for 6 weeks)) is on record as 1181 ± 69^b. Also, the “Level of HbA1c” value in the series with db/db mice [4] (setting [5]) is on record as “reduce”. Moreover, the HbA1c with db/db mice [4] (setting [6]) was 4.2 ± 0.2^a %. Also, in the series on db/db mice [4] (mouse, in vivo), the ALT was 72 ± 20^ab U/L, the AST was 169 ± 24^de U/L, the BUN is recorded as 41 ± 5^bd mg/dL and the Creatinine is on record as 0.424 ± 0.02^ab mg/dL.
In the case of tienam, in the series on db/db mice [4] (mouse, in vivo), the ALT is reported as 104 ± 10^cd U/L, the AST was 212 ± 43^e U/L, the BUN is reported as 47 ± 4^d mg/dL and the Creatinine was 0.473 ± 0.05^be mg/dL.
